Laboratory results as given in patent USRE48253E1, “Methotrexate adjuvants to reduce toxicity and methods for using the same” (Tosk, Inc., priority 2008, dated 2020).

Tests used:
C57BL/6 mice = experiment: Mouse Study I: protection from MTX-induced weight loss (LPS/MTX model); format: in vivo; details: 10 or 30 mg/kg ip 3 hr before and after MTX; LPS+MTX treated mice
Description: C57BL/6 mice (10 animals/treatment group) were dosed on Day 1 with LPS (5 μg, i.p.). On Day 2, the animals were treated with 200 mg/kg MTX+10 or 30 mg/kg TK-112690 3 hr before and 3 hr after the MTX treatment. On Day 3, the animals were dosed MTX 100 mg/kg+10 or 30 mg/kg TK±3 hr. On day 8, the Day 8-Day 1 weight was determined and results subject to ANOVA. Group 1=saline alone, Group 2=MTX alone, Group 3=LPS alone, Group 4=MTX+LPS, Group 5=10 mg/kg TK-112690+MTX+LPS or Group 6=30 mg/kg TK-112690+MTX+LPS.
This mouse model is modified from a published procedure (de Koning et al., Int Immunol 18: 941 (2006)). Mice are treated on day one with a single intraperitoneal (ip) dose of lipopolysaccharide (LPS), followed by two consecutive days with 200 and 100 mg/kg ip methotrexate, respectively. Controls include saline alone for days 1, 2, and 3, saline on day 1 plus MTX on days 2 and 3 and LPS on day one with saline injection on days 2 and 3. Experimental groups are given LPS on day one and 10 or 30 mg/kg, TK-112690, a representative 2,2′-anhydropyrimidine test article, ip 3 hours before, and 3 hours after, methotrexate injection on days 2 and 3. Animal weights are measured every day after the first injection with experiment termination five days after the second methotrexate injection (day 8). Weight loss is representative of MTX-induced toxicity, and one aspect of MTX-induced mucositis. […]

[1] = tested on: AS283 human lymphoma xenografts; experiment: Mouse Study V: xenograft with AS283 implants; format: in vivo, C.B.-17 SCID mice; details: p=1.0
Description: Six-week-old male SCID mice were implanted with fragments of AS283 human lymphoma tumors. The tumors were allowed to reach 75-198 mg in weight (75-198 mm^3 in size) before the start of treatment. The experiment consisted of two treatment groups and one vehicle-treated control group, with ten animals per group, for a total of 30 mice on the first day of treatment.
TK-112690 was administered by ip injection [twice every 2 days for 5 injections with six hour interval (q6h×2, q2d×5)] at a dosage of 30 mg/kg/injection. MTX was administered by ip injection q2d×5 at a dosage of 5.0 mg/kg/injection three hours after the TK-112690 injection. The control group was treated with both vehicles, which were administered on the corresponding compound schedules.
Six-week-old male C.B.-17 SCID mice were acclimated in the laboratories for seven days prior to experimentation. Thirty-to-forty mg fragments of AS283 human lymphoma tumor were implanted sc in mice near the right flank using a 12-gauge trocar needle and allowed to grow. […]
The sc tumors were measured and the animals were weighed thrice weekly starting the day of the first treatment. Tumor volume was determined by caliper measurements (mm) and using the formula for an ellipsoid sphere: L×W^2/2=mm^3, where L and W refer to the larger and smaller perpendicular dimensions collected at each measurement. […]

SMILES: Cc1cn2c(nc1=O)O[C@H]1[C@H](O)[C@@H](CO)O[C@H]12 [TK-112690, 2,2′-anhydro-5-methyluridine]
- protection from MTX-induced weight loss (Day 8-Day 1 weight) (C57BL/6 mice): highly significant
- tumor volumes Day 21, MTX+TK-112690 vs MTX [1]: no statistical difference
